“And” between values parts separate entries of the source, which are not always exact repeats. Equal values may be shown once. Read-outs that look alike come from different tables or passages of the source.

For data set [1], the system named is Pf3D7. Put plainly: microbe, parasite or virus in culture. The class given is cell-based. The note with it: Plasmodium falciparum, 3D7, read-out: Pf3D7 IC50.
The test system of data set [2] is PfW2. Put plainly: microbe, parasite or virus in culture. The class given is cell-based, Plasmodium falciparum. To be noted: read-out: PfW2 IC50.
The nature of data set [3]: Cytotoxicity by MTT assay, lung cancer A5489 cell line. It is filed as cell-based, human. To be noted: human, lung cancer A5489 cell line.
In data set [4] the test system is lung cancer A5489 cell line. The description is as above. It is filed as cell-based, human. The note with it: for Selectivity index (SI) with Pf3D7 strain, A5489: cytotoxicity IC50 / Pf3D7 IC50; for Selectivity index (SI) with PfW2 strain, A5489: cytotoxicity IC50 / PfW2 IC50.
The target of a further data set is T1, Falcipain-3 (Plasmodium falciparum, UniProt Q8IIL0).
T1 sequence (Q8IIL0 243-492): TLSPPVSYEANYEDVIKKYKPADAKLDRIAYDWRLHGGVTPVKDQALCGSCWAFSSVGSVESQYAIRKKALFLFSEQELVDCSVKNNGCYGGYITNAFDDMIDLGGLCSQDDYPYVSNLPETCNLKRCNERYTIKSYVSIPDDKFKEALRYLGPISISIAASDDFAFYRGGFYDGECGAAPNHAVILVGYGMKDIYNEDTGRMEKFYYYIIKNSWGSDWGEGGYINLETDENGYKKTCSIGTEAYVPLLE
In words: biochemical.

The subject of data set [5] is early ring stage 3D7 parasite of P. falciparum. Put plainly: Impact on parasite growth and morphology. The note with it: ring-stage parasites, 3 × IC50 concentration, smears after 24 and 48 hours. The class given is cell-based, Plasmodium falciparum.
Another data set addresses T2, Falcipain-2 (Plasmodium falciparum, UniProt Q8I6U4).
T2 sequence (Q8I6U4 244-484): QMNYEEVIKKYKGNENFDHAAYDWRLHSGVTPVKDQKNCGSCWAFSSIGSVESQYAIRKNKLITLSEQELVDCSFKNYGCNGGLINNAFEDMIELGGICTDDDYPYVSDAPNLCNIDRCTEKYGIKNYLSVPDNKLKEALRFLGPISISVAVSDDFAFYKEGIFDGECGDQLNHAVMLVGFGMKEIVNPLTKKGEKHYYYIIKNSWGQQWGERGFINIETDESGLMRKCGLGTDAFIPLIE
In words: biochemical. The note with it: Falcipain-2 (IC50 μM), mean of triplicate.

Another data set has as its system Vero cell. In words: Cytotoxicity by MTT assay, Vero cells. It is filed as cell-based. To be noted: for Selectivity index (SI) with Pf3D7 strain, Vero cell: cytotoxicity IC50 / Pf3D7 IC50; for Selectivity index (SI) with PfW2 strain, Vero cell: cytotoxicity IC50 / PfW2 IC50.
A short description of data set [6]: Cytotoxicity by MTT assay, Vero cells. To be noted: African green monkey, Vero cells. It is filed as cell-based.
Data set [7] deals with PfW2. To be noted: read-out: PfW2 IC50; reference drugs, reported earlier; cited from earlier work.
The test system of data set [8] is Pf3D7. To be noted: read-out: Pf3D7 IC50; reference drugs, reported earlier; cited from earlier work.

Take `Cc1noc(C)c1S(=O)(=O)N1CCN(c2cc(N3CCC4(CC3)CC(=O)c3ccccc3O4)ncn2)CC1` [SZ12, 1′-(6-(4-((3,5-Dimethylisoxazol-4-yl)sulfonyl)piperazin-1-yl)pyrimidin-4-yl) spiro[chromane-2,4′-piperidin]-4-one]: the values for the half-maximal inhibitory concentration (IC50) with Pf3D7 [1] and with PfW2 [2] (Plasmodium falciparum) were 8.46 ± 0.28 µM and more than 15 µM, respectively.
Regarding `O=C1CC2(CCN(c3cc(N4CCN(S(=O)(=O)c5ccc(F)c(F)c5)CC4)ncn3)CC2)Oc2ccccc21` [SZ11, 1′-(6-(4-((3,4-Difluorophenyl)sulfonyl)piperazin-1-yl)pyrimidin-4-yl)spiro [chromane-2,4′-piperidin]-4-one], the IC50 in the data set with Pf3D7 [1] turned out to be 3.92 ± 0.25 µM; against Falcipain-3 it was 8 ± 1.4 µM; with PfW2 [2] (Plasmodium falciparum), 5.58 ± 0.19 µM; at Falcipain-2 it was 6.5 ± 1.6 µM. In data set [3], this compound had an IC50 at 24 h of 94.2 ± 2.97 µM. Besides, the “Selectivity index (SI) with Pf3D7 strain, A5489” value in data set [4] is reported as 24.01. In addition, the “Selectivity index (SI) with PfW2 strain, A5489” value in data set [4] was 16.87. The “Effect on erythrocytic growth of the parasite” value (“Effect on erythrocytic growth” below) in data set [5] is on record as “stopped at the early trophozoite stage”. Moreover, the “Selectivity index (SI) with Pf3D7 strain, Vero cell” value in the data set on Vero cell was 255.10. In addition, the “Selectivity index (SI) with PfW2 strain, Vero cell” value with Vero cell worked out at 179.21. This compound also showed an IC50 at 72 h in [6] of more than 1000 µM.
As to `CCN(CC)CCCC(C)Nc1ccnc2cc(Cl)ccc12` (stereo not drawn) [CQ, Chloroquine], the IC50 in the data set with PfW2 [7] was 0.051 ± 0.001 µM; in the data set with Pf3D7 [8], 0.018 ± 0.002 µM.
In the case of `O=C1CC2(CCN(c3cc(N4CCN(S(=O)(=O)c5cccs5)CC4)ncn3)CC2)Oc2ccccc21` [SZ5, 1′-(6-(4-(Thiophen-2-ylsulfonyl)piperazin-1-yl)pyrimidin-4-yl) spiro[chromane-2,4′-piperidin]-4-one], the IC50 was found to be 7.45 ± 0.37 µM with Pf3D7 [1] and 13.3 ± 0.19 µM in the data set with PfW2 [2] (Plasmodium falciparum).
In the same order, the values of `O=C1CC2(CCN(c3cc(N4CCN(S(=O)(=O)N5CCOCC5)CC4)ncn3)CC2)Oc2ccccc21` [SZ13, 1′-(6-(4-(Morpholinosulfonyl)piperazin-1-yl)pyrimidin-4-yl) spiro[chromane-2,4′-piperidin]-4-one] are 22.2 ± 0.36 µM and more than 15 µM.
Regarding `O=C1CC2(CCN(c3cc(N4CCN(S(=O)(=O)c5ccc6ccccc6c5)CC4)ncn3)CC2)Oc2ccccc21` [SZ3, 1′-(6-(4-(Naphthalen-2-ylsulfonyl)piperazin-1-yl)pyrimidin-4-yl)spiro[chromane-2,4′-piperidin]-4-one], the half-maximal inhibitory concentration (IC50) in the data set on Pf3D7 [1] is 25.2 ± 0.35 µM; in the data set on PfW2 [2] (Plasmodium falciparum), more than 15 µM.
In the same order, the values of `O=C1CC2(CCN(c3cc(N4CCN(S(=O)(=O)c5ccccc5F)CC4)ncn3)CC2)Oc2ccccc21` [SZ8, 1′-(6-(4-((2-Fluorophenyl)sulfonyl)piperazin-1-yl)pyrimidin-4-yl)spiro[chromane-2,4′-piperidin]-4-one] are 5.61 ± 0.42 µM and 8.12 ± 0.37 µM.
`N#Cc1ccc(S(=O)(=O)N2CCN(c3cc(N4CCC5(CC4)CC(=O)c4ccccc4O5)ncn3)CC2)cc1` [SZ4, 4-((4-(6-(4-Oxospiro[chromane-2,4′-piperidin]-1′-yl)pyrimidin-4-yl)piperazin-1-yl)sulfonyl)benzonitrile]: the IC50 was determined as 6.33 ± 0.29 µM with Pf3D7 [1] and 14.4 ± 0.16 µM with PfW2 [2] (Plasmodium falciparum).
In the case of `O=C1CC2(CCN(c3cc(N4CCN(S(=O)(=O)c5cccc(C(F)(F)F)c5)CC4)ncn3)CC2)Oc2ccccc21` [SZ14, 1′-(6-(4-((3-(Trifluoromethyl)phenyl)sulfonyl)piperazin-1-yl)pyrimidin-4-yl)spiro [chromane-2,4′-piperidin]-4-one], the IC50 with Pf3D7 [1] was found to be 2.84 ± 0.21 µM; on Falcipain-3, 5.4 ± 0.7 µM; in the data set on PfW2 [2] (Plasmodium falciparum), 2.84 µM; with PfW2 [2] it was 3.12 ± 0.14 µM; at Falcipain-2, 4.1 ± 1.1 µM. The compound further showed an IC50 at 24 h in [3] of 66.2 ± 2.14 µM. For the same compound, the “Selectivity index (SI) with Pf3D7 strain, A5489” value in data set [4] is 23.31. The “Selectivity index (SI) with PfW2 strain, A5489” value in [4] stood at 21.22. For the same compound, the “Effect on erythrocytic growth” value in data set [5] is listed as “stopped at the early trophozoite stage”. In addition, the “Selectivity index (SI) with Pf3D7 strain, Vero cell” value in the data set with Vero cell came to 352.11. The “Selectivity index (SI) with PfW2 strain, Vero cell” value with Vero cell is recorded as 320.51. In [6], this compound returned an IC50 at 72 h of more than 1000 µM.
Take `O=C1CC2(CCN(c3cc(N4CCN(S(=O)(=O)c5cccnc5)CC4)ncn3)CC2)Oc2ccccc21` [SZ7, 1′-(6-(4-(Pyridin-3-ylsulfonyl)piperazin-1-yl)pyrimidin-4-yl)spiro[chromane-2,4′-piperidin]-4-one]: the IC50 came out at 7.97 ± 0.33 µM with Pf3D7 [1] and 5.64 ± 0.18 µM in the data set on PfW2 [2] (Plasmodium falciparum).
In the case of `CCc1nc(N)nc(N)c1-c1ccc(Cl)cc1` [PYR, pyrimethamine], the IC50 was 129 ± 11.3 µM with PfW2 [7] and 0.015 ± 0.0002 µM in the data set with Pf3D7 [8].
`O=C1CC2(CCN(c3cc(N4CCN(S(=O)(=O)c5ccccc5[N+](=O)[O-])CC4)ncn3)CC2)Oc2ccccc21` [SZ2, 1′-(6-(4-((2-Nitrophenyl)sulfonyl)piperazin-1-yl)pyrimidin-4-yl)spiro [chromane-2,4′-piperidin]-4-one]: the IC50 in the data set with Pf3D7 [1] is 18.1 ± 0.43 µM; in the data set with PfW2 [2] (Plasmodium falciparum) it was more than 14 µM; in the data set on PfW2 [2] it was more than 15 µM.
`O=C1CC2(CCN(c3cc(N4CCN(S(=O)(=O)c5ccc(F)cc5)CC4)ncn3)CC2)Oc2ccccc21` [SZ9, 1′-(6-(4-((4-Fluorophenyl)sulfonyl)piperazin-1-yl)pyrimidin-4-yl)spiro[chromane-2,4′-piperidin]-4-one]: the IC50 in the data set on Pf3D7 [1] was 3.22 ± 0.07 µM; against Falcipain-3 it was 6.3 ± 1.2 µM; with PfW2 [2] (Plasmodium falciparum), 3.89 ± 0.23 µM; against Falcipain-2, 5.4 µM and 4.9 µM. In addition, the half-inhibitory concentration (IC50) at 24 h in data set [3] stood at 78.5 ± 2.76 µM. The “Selectivity index (SI) with Pf3D7 strain, A5489” value in data set [4] was 24.36. In addition, the “Selectivity index (SI) with PfW2 strain, A5489” value in data set [4] turned out to be 20.17. Moreover, the “Effect on erythrocytic growth” value in data set [5] was “stopped at the early trophozoite stage”. Moreover, in the data set with Vero cell, the “Selectivity index (SI) with Pf3D7 strain, Vero cell” value worked out at 310.55. Also, the “Selectivity index (SI) with PfW2 strain, Vero cell” value in the data set with Vero cell is given as 257.06. In [6], the IC50 at 72 h was more than 1000 µM.
For the compound `O=C1CC2(CCN(c3cc(N4CCN(S(=O)(=O)c5ccc([N+](=O)[O-])cc5)CC4)ncn3)CC2)Oc2ccccc21` [SZ1, 1′-(6-(4-((4-Nitrophenyl)sulfonyl)piperazin-1-yl)pyrimidin-4-yl)spiro[chromane-2,4′-piperidin]-4-one], the figures for the IC50 in the data set with Pf3D7 [1], in the data set with PfW2 [2] (Plasmodium falciparum) and in the data set on PfW2 [2] were 14.8 ± 0.24 µM, more than 14 µM and more than 15 µM, respectively.
Take `O=C1CC2(CCN(c3cc(N4CCN(S(=O)(=O)c5cc(F)cc(F)c5)CC4)ncn3)CC2)Oc2ccccc21` [SZ10, 1′-(6-(4-((3,5-Difluorophenyl)sulfonyl)piperazin-1-yl)pyrimidin-4-yl) spiro [chromane-2,4′-piperidin]-4-one]: the IC50 in the data set on Pf3D7 [1] turned out to be 4.55 ± 0.34 µM; at Falcipain-3, 8.8 ± 1.5 µM; in the data set with PfW2 [2] (Plasmodium falciparum), 6.67 ± 0.16 µM; at Falcipain-2 it was 7.2 ± 1.8 µM. Also, in data set [3], half-maximal inhibition (IC50 at 24 h) required 122 ± 3.39 µM. For the same compound, the “Selectivity index (SI) with Pf3D7 strain, A5489” value in data set [4] worked out at 26.91. Also, the “Selectivity index (SI) with PfW2 strain, A5489” value in data set [4] is listed as 18.35. For the same compound, in data set [5], the “Effect on erythrocytic growth” value is “stopped at the early trophozoite stage”. Further, in the data set on Vero cell, the “Selectivity index (SI) with Pf3D7 strain, Vero cell” value is 219.79. Also, in the data set with Vero cell, the “Selectivity index (SI) with PfW2 strain, Vero cell” value came to 149.92. For the same compound, the IC50 at 72 h in [6] is more than 1000 µM.
